In PubChem BioAssay AID248 (DTP/NCI, 2004):
“And” between values parts separate entries of the source, which are not always exact repeats. Identical values can stand only once. Toxic doses and inconclusive results are not listed. Cut-off read from the data, not from the text of the source: active = T/C of 150% or more; inactive = T/C below 125%.

System: L1210 leukemia ip in BDF1 mice, survival T/C
Assay: NCI In Vivo Anticancer Drug Screen. Data for tumor model L1210 Leukemia (intraperitoneal) in B6D2F1 (BDF1) mice
Conditions: endpoint: mean survival time, higher = longer survival
How it was run: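 Ratio derived from survival: compound-dosed mice over vehicle-dosed mice, all bearing a transplantable tumor.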

[1] = dose: 100.0 mg/kg/injection, schedule: Q04DX002 (ip), vehicle: saline with Tween-80
[2] = dose: 200.0 mg/kg/injection, schedule: Q04DX002 (ip), vehicle: saline with Tween-80
[3] = dose: 100.0 mg/kg/injection, schedule: Q01DX009 (ip), vehicle: saline with Tween-80
[4] = dose: 200.0 mg/kg/injection, schedule: Q01DX009 (ip), vehicle: saline with Tween-80
[5] = dose: 400.0 mg/kg/injection, schedule: Q04DX002 (ip), vehicle: saline with Tween-80
[6] = dose: 100.0 mg/kg/injection, schedule: Q01DX001 (ip), vehicle: saline
[7] = dose: 200.0 mg/kg/injection, schedule: Q01DX001 (ip), vehicle: saline
[8] = dose: 12.5 mg/kg/injection, schedule: Q01DX009 (ip), vehicle: saline
[9] = dose: 25.0 mg/kg/injection, schedule: Q01DX009 (ip), vehicle: saline
[10] = dose: 50.0 mg/kg/injection, schedule: Q01DX009 (ip), vehicle: saline
[11] = dose: 50.0 mg/kg/injection, schedule: Q01DX009 (ip), vehicle: saline with Tween-80

Measured: T/C

S=P(c1ccccc1)(N1CC1)N1CC1
inactive: dose: 25.0 mg/kg/injection, schedule: Q04DX002 (ip), vehicle: saline with Tween-80 110 % of control | dose: 50.0 mg/kg/injection, schedule: Q01DX Z (ip), vehicle: saline 124 % of control | dose: 50.0 mg/kg/injection, schedule: Q04DX002 (ip), vehicle: saline with Tween-80 103 % of control | dose: 100.0 mg/kg/injection, schedule: Q01DX Z (ip), vehicle: saline 115 % of control | [1] 115 % of control and 116 % of control | [2] 92 % of control

NC(CSC(c1ccccc1)(c1ccccc1)c1ccccc1)C(=O)OC(c1ccccc1)c1ccccc1 (stereo not drawn)
inactive: dose: 264.0 mg/kg/injection, schedule: Q01DX001 (ip), vehicle: carboxymethylcellulose (CMC) 113 % of control

O=C(NC1N=C2OC(COC(=O)c3ccccc3)C(OC(=O)c3ccccc3)C2O1)c1ccccc1 (stereo not drawn)
inactive: [3] 108 % of control | [4] 93 % of control | dose: 400.0 mg/kg/injection, schedule: Q01DX009 (ip), vehicle: saline with Tween-80 98 % of control

Cc1ccc(/C=N\NC(=O)C(O)C(O)C(O)C(O)CO)cc1 (stereo not drawn)
inactive: [1] 91 % of control | [2] 91 % of control | [5] 109 % of control

O=C(Nc1cccc(C2=NCCN2)c1)c1cccc(C(=O)Nc2cccc(C3=NCCN3)c2)c1
inactive: dose: 15.0 mg/kg/injection, schedule: Q01DX Z (ip), vehicle: carboxymethylcellulose (CMC) 103 % of control | dose: 31.0 mg/kg/injection, schedule: Q01DX Z (ip), vehicle: carboxymethylcellulose (CMC) 92 % of control | dose: 62.0 mg/kg/injection, schedule: Q01DX Z (ip), vehicle: carboxymethylcellulose (CMC) 92 % of control

CCCCCCC1CCC(O)C1CCCCCCC(=O)O (stereo not drawn)
inactive: dose: 50.0 mg/kg/injection, schedule: Q04DX002 (ip), vehicle: saline 98 % of control | dose: 100.0 mg/kg/injection, schedule: Q04DX002 (ip), vehicle: saline 91 % of control | dose: 200.0 mg/kg/injection, schedule: Q04DX002 (ip), vehicle: saline 91 % of control

CC(=O)NC(C)C1(O)CCCCC1 (stereo not drawn)
inactive: dose: 100.0 mg/kg/injection, schedule: Q01DX009 (ip), vehicle: saline 101 % of control | dose: 200.0 mg/kg/injection, schedule: Q01DX009 (ip), vehicle: saline 96 % of control | dose: 400.0 mg/kg/injection, schedule: Q01DX009 (ip), vehicle: saline 98 % of control

CC/C(=N/OC(=O)N(C)C)c1ccccc1
inactive: [6] 96 % of control | [7] 100 % of control | dose: 400.0 mg/kg/injection, schedule: Q01DX001 (ip), vehicle: saline 104 % of control

CC1(C)N=C(N)N=C(N)N1c1ccc(CC(=O)Nc2cccc(S(=O)(=O)F)c2)cc1
inactive: dose: 6.25 mg/kg/injection, schedule: Q#A X018 (ip), vehicle: saline 105 % of control | [8] 103 % of control | dose: 12.5 mg/kg/injection, schedule: Q#A X018 (ip), vehicle: saline 111 % of control | [9] 111 % of control | [10] 117 % of control and 118 % of control | dose: 50.0 mg/kg/injection, schedule: Q#A X018 (ip), vehicle: saline 118 % of control | [6] 100 % of control | [7] 102 % of control

N#Cc1cccnc1Cl
inactive: dose: 100.0 mg/kg/injection, schedule: Q01DX001 (ip), vehicle: Klucel (hydroxypropylcellulose) (HPC) 100 % of control | dose: 100.0 mg/kg/injection, schedule: Q04DX003 (ip), vehicle: Klucel (hydroxypropylcellulose) (HPC) 96 % of control | dose: 200.0 mg/kg/injection, schedule: Q01DX001 (ip), vehicle: Klucel (hydroxypropylcellulose) (HPC) 94 % of control | dose: 200.0 mg/kg/injection, schedule: Q04DX003 (ip), vehicle: Klucel (hydroxypropylcellulose) (HPC) 87 % of control | dose: 400.0 mg/kg/injection, schedule: Q01DX001 (ip), vehicle: Klucel (hydroxypropylcellulose) (HPC) 100 % of control | dose: 400.0 mg/kg/injection, schedule: Q04DX003 (ip), vehicle: Klucel (hydroxypropylcellulose) (HPC) 99 % of control

C/C(=N/NC(N)=S)c1cccc(C(F)(F)F)c1
inactive: dose: 37.5 mg/kg/injection, schedule: Q01DX009 (ip), vehicle: Klucel (hydroxypropylcellulose) (HPC) 97 % of control | dose: 75.0 mg/kg/injection, schedule: Q01DX009 (ip), vehicle: Klucel (hydroxypropylcellulose) (HPC) 95 % of control

CCCCCCCCCCCCCCCCCC(CC)c1ccccc1 (stereo not drawn)
inactive: dose: 100.0 mg/kg/injection, schedule: Q01DX001 (ip), vehicle: saline with Tween-80 104 % of control | dose: 200.0 mg/kg/injection, schedule: Q01DX001 (ip), vehicle: saline with Tween-80 94 % of control | dose: 400.0 mg/kg/injection, schedule: Q01DX001 (ip), vehicle: saline with Tween-80 94 % of control

Cc1ccc(S(=O)(=O)NCCN(C2CCCCC2)S(=O)(=O)c2ccc(C)cc2)cc1
inactive: dose: 15.0 mg/kg/injection, schedule: Q01DX001 (ip), vehicle: carboxymethylcellulose (CMC) 96 % of control | dose: 30.0 mg/kg/injection, schedule: Q01DX001 (ip), vehicle: carboxymethylcellulose (CMC) 96 % of control

CC(C)=CCc1cccc(C)c1
inactive: [11] 94 % of control | [3] 98 % of control | [4] 105 % of control

O=C(O)CSC(C(=O)O)c1ccccc1 (stereo not drawn)
inactive: [11] 93 % of control | [3] 92 % of control | dose: 100.0 mg/kg/injection, schedule: Q04DX003 (ip), vehicle: saline with Tween-80 94 % of control | [4] 93 % of control | dose: 200.0 mg/kg/injection, schedule: Q04DX003 (ip), vehicle: saline with Tween-80 97 % of control

CN(N=O)C(=O)NCc1c[nH]c(=O)[nH]c1=O
inactive: dose: 6.0 mg/kg/injection, schedule: Q01DX Z (ip), vehicle: carboxymethylcellulose (CMC) 106 % of control | dose: 12.0 mg/kg/injection, schedule: Q01DX Z (ip), vehicle: carboxymethylcellulose (CMC) 101 % of control | dose: 25.0 mg/kg/injection, schedule: Q01DX Z (ip), vehicle: carboxymethylcellulose (CMC) 100 % of control | dose: 50.0 mg/kg/injection, schedule: Q01DX Z (ip), vehicle: carboxymethylcellulose (CMC) 121 % of control

CCSCC(C)O (stereo not drawn)
inactive: [1] 100 % of control | [2] 100 % of control | [5] 94 % of control

O=[N+]([O-])/C=C/c1ccccc1Cl
inactive: dose: 5.0 mg/kg/injection, schedule: Q01DX009 (ip), vehicle: other 98 % of control | dose: 6.25 mg/kg/injection, schedule: Q01DX009 (ip), vehicle: saline with Tween-80 100 % of control | dose: 10.0 mg/kg/injection, schedule: Q01DX009 (ip), vehicle: other 110 % of control | dose: 12.5 mg/kg/injection, schedule: Q01DX009 (ip), vehicle: saline with Tween-80 95 % of control | dose: 15.0 mg/kg/injection, schedule: Q04DX003 (ip), vehicle: other 114 % of control | dose: 20.0 mg/kg/injection, schedule: Q01DX009 (ip), vehicle: other 100 % of control | dose: 25.0 mg/kg/injection, schedule: Q01DX009 (ip), vehicle: saline with Tween-80 101 % of control | dose: 30.0 mg/kg/injection, schedule: Q04DX003 (ip), vehicle: other 104 % of control | dose: 37.5 mg/kg/injection, schedule: Q01DX009 (sc), vehicle: olive oil, sesame oil, peanut oil 94 % of control | dose: 37.5 mg/kg/injection, schedule: Q04DX003 (ip), vehicle: Klucel (hydroxypropylcellulose) (HPC) 101 % of control | [11] 96 % of control | dose: 60.0 mg/kg/injection, schedule: Q04DX003 (ip), vehicle: other 108 % of control | dose: 75.0 mg/kg/injection, schedule: Q01DX001 (ip), vehicle: saline 92 % of control | dose: 75.0 mg/kg/injection, schedule: Q01DX009 (sc), vehicle: olive oil, sesame oil, peanut oil 94 % of control | dose: 75.0 mg/kg/injection, schedule: Q04DX003 (ip), vehicle: Klucel (hydroxypropylcellulose) (HPC) 90 % of control | dose: 150.0 mg/kg/injection, schedule: Q04DX003 (ip), vehicle: Klucel (hydroxypropylcellulose) (HPC) 90 % of control

CC(C)=CCC/C(C)=C/Cn1cnc2c(ncn2C2OC(CO)C(O)C2O)c1=O (stereo not drawn)
inactive: [8] 100 % of control | dose: 25.0 mg/kg/injection, schedule: Q01DX005 (ip), vehicle: saline 97 % of control | [9] 100 % of control | dose: 50.0 mg/kg/injection, schedule: Q01DX005 (ip), vehicle: saline 108 % of control | [10] 92 % of control | dose: 100.0 mg/kg/injection, schedule: Q01DX005 (ip), vehicle: saline 96 % of control
